Data published in ChEMBL document CHEMBL3792365, “Dioxol and dihydrodioxin analogs of 2- and 3-phenylacetonitriles as potent anti-cancer agents with nanomolar activity against a variety of human cancer cells” (2016).

Assays:
Assay type in all cases: functional
[1] = Growth inhibition of human TK10 cells at 10 uM after 48 hrs by sulforhodamine B assay; settings: TK-10, 48 h, values are per cent of control
[2] = test system: T47D; assay: Growth inhibition of human T47D cells at 10 uM after 48 hrs by sulforhodamine B assay; settings: values are per cent of control
[3] = Growth inhibition of human HL-60(TB) cells at 10 uM after 48 hrs by sulforhodamine B assay; settings: HL-60, 48 h, values are per cent of control
[4] = test system: MCF7; assay: Growth inhibition of human MCF7 cells at 10 uM after 48 hrs by sulforhodamine B assay; settings: MCF7, 48 h, values are per cent of control
[5] = Growth inhibition of human SF268 cells at 10 uM after 48 hrs by sulforhodamine B assay; settings: SF-268, 48 h, values are per cent of control
[6] = Growth inhibition of human HCC2998 cells at 10 uM after 48 hrs by sulforhodamine B assay; settings: HCC 2998, 48 h, values are per cent of control
[7] = Growth inhibition of human MOLT4 cells at 10 uM after 48 hrs by sulforhodamine B assay; settings: MOLT-4, 48 h, values are per cent of control
[8] = Growth inhibition of human UACC257 cells at 10 uM after 48 hrs by sulforhodamine B assay; settings: UACC-257, 48 h, values are per cent of control
[9] = Growth inhibition of human HOP92 cells at 10 uM after 48 hrs by sulforhodamine B assay; settings: HOP-92, 48 h, values are per cent of control
[10] = test system: NCI-H522; assay: Growth inhibition of human NCI-H522 cells at 10 uM after 48 hrs by sulforhodamine B assay; settings: NCI-H522, 48 h, values are per cent of control
[11] = Growth inhibition of human NCI-ADR-RES cells at 10 uM after 48 hrs by sulforhodamine B assay; settings: values are per cent of control
[12] = test system: CCRF-CEM; assay: Growth inhibition of human CCRF-CEM cells at 10 uM after 48 hrs by sulforhodamine B assay; settings: values are per cent of control
[13] = Growth inhibition of human RPMI8226 cells at 10 uM after 48 hrs by sulforhodamine B assay; settings: RPMI-8226, 48 h, values are per cent of control
[14] = Growth inhibition of human PC3 cells at 10 uM after 48 hrs by sulforhodamine B assay; settings: PC-3, 48 h, values are per cent of control
[15] = Growth inhibition of human SKOV3 cells at 10 uM after 48 hrs by sulforhodamine B assay; settings: SK-OV-3, 48 h, values are per cent of control
[16] = Growth inhibition of human OVCAR3 cells at 10 uM after 48 hrs by sulforhodamine B assay; settings: OVCAR-3, 48 h, values are per cent of control
[17] = test system: U-251; assay: Growth inhibition of human U251 cells at 10 uM after 48 hrs by sulforhodamine B assay; settings: U-251, 48 h, values are per cent of control
[18] = test system: Malme-3M; assay: Growth inhibition of human MALME-3M cells at 10 uM after 48 hrs by sulforhodamine B assay; settings: values are per cent of control
[19] = test system: MDA-MB-468; assay: Growth inhibition of human MDA-MB-468 cells at 10 uM after 48 hrs by sulforhodamine B assay; settings: MDA-MB-468, 48 h, values are per cent of control

| SMILES | growth, % of control at 10 µM [1] | growth, % of control at 10 µM [2] | growth, % of control at 10 µM [3] | growth, % of control at 10 µM [4] | growth, % of control at 10 µM [5] | growth, % of control at 10 µM [6] | growth, % of control at 10 µM [7] | growth, % of control at 10 µM [8] | growth, % of control at 10 µM [9] | growth, % of control at 10 µM [10] | growth, % of control at 10 µM [11] | growth, % of control at 10 µM [12] | growth, % of control at 10 µM [13] | growth, % of control at 10 µM [14] | growth, % of control at 10 µM [15] | growth, % of control at 10 µM [16] | growth, % of control at 10 µM [17] | growth, % of control at 10 µM [18] | growth, % of control at 10 µM [19] |
| --- | --- | --- | --- | --- | --- | --- | --- | --- | --- | --- | --- | --- | --- | --- | --- | --- | --- | --- | --- |
| COc1ccc(/C=C(\C#N)c2ccc3c(c2)OCO3)cc1OC | 96.5% | 88.7% | 72% | 87.2% | 99.5% | 106% | 85.2% | 118% | 110% | 94.5% | 102% | 89.4% | 96.9% | 100% | 105% | 109% | 102% | 103% | 104% |
| COc1ccc(/C(C#N)=C/c2ccc3c(c2)OCO3)cc1 | 85.7% | 70% | 66.6% | 60.8% | 92% | 80% | 70.4% |  | 93% | 90.5% | 75.3% | 72.1% | 64.7% | 81% | 88.6% | 88.7% | 80.9% | 79.9% | 48.6% |
| N#C/C(=C\c1cc(Br)cc(Br)c1)c1ccc2c(c1)OCO2 | 96.1% | 82% | 62.9% | 82.3% | 93.5% | 90.7% | 66.6% | 100% | 113% | 76.3% | 94.9% | 75.4% | 76.6% | 89.2% | 94.4% | 103% | 99.9% | 84% | 103% |
| COc1cc(/C=C(\C#N)c2ccc3c(c2)OCO3)cc(OC)c1OC | 98.1% | 70.7% | 88.6% |  | 94.4% | 91.3% | 87.2% | 97.5% |  | 85.8% | 93.9% | 96.5% | 88.5% | 88.7% | 103% | 108% | 96.6% | 98.9% | 99.6% |
| N#C/C(=C\c1ccc2ccccc2n1)c1ccc2c(c1)OCO2 | 45% | 69.4% | 87.1% | 84.6% | 62.5% | 95.1% | 78.5% |  | 90.2% | 58.8% | 64.3% | 89.7% | 84.9% | 77.5% | 25.8% | 63% | 26.7% | 68.3% | 77.8% |
| N#C/C(=C\c1ccsc1)c1ccc2c(c1)OCO2 | 104% | 90.7% | 83.5% | 87.1% | 102% | 106% | 79.7% | 110% |  | 95.4% | 113% | 104% | 104% | 110% | 102% | 103% | 93.7% | 114% | 105% |
| N#C/C(=C\c1ccc(Cl)c(Cl)c1)c1ccc2c(c1)OCO2 | 90.2% | 74.7% | 83.1% | 79.9% | 80.9% | 92.1% | 72.2% | 86.3% |  | 82.7% | 79.3% | 91.9% | 80.1% | 91.5% | 70.6% | 97.7% | 86.3% |  | 101% |
| N#C/C(=C\c1c(Cl)cccc1Cl)c1ccc2c(c1)OCO2 | 81% | 83.8% | 75% | 93.7% | 102% | 89.9% | 61.2% | 99.8% |  | 65.4% | 103% | 86.7% | 84.4% | 94.3% | 97.9% | 97.7% | 89% | 56.1% | 84.9% |
| N#C/C(=C\c1cccnc1Cl)c1ccc2c(c1)OCO2 | 106% | 93.4% | 83.8% | 112% | 109% | 107% |  | 112% |  | 71.7% | 101% | 93.7% | 89.3% | 101% | 103% | 115% | 95.8% | 107% | 93.7% |
| COc1ccc(/C=C(\C#N)c2ccc3c(c2)OCO3)c(Cl)c1OC | 87.6% | 65.1% |  | 71.6% | 98.2% | 76.9% |  | 106% |  | 66% | 60.5% |  |  |  | 89.2% | 100% | 95.5% | 79.1% | 48.8% |
| COc1cc(/C=C(\C#N)c2ccc3c(c2)OCO3)cc(OC)c1 | 95.6% | 75.6% | 64.5% | 85.5% | 95.5% | 102% | 67.2% | 97% |  | 87.9% | 99.7% | 83.4% | 89.4% | 97.3% | 101% | 103% | 93.7% | 95.7% | 98.7% |
